Reference: patent publication US9662351B2, “Plasma and brain pharmacokinetics of previously unexplored lithium salts” (University of South Florida, priority 2014, dated 2017)

Tests used:
[1] = rat
Protocol: Male Sprague Dawley rats weighing 200-250 grams were dosed via oral gavage with 4 meq. […] Blood and brain were collected and lithium was measured using atomic absorption spectroscopy (AAS).
Male Sprague Dawley rats weighing 200-250 grams were purchased from Harlan (Harlan Sprague Dawley Inc., Indianapolis, Ind.). […] The rats were allowed to acclimate for a period of one week before any experiments are carried out. […] They were allowed free access to food and water throughout the experiment. […] Animals in each treatment group were euthanized at 2, 24, 48, and 72 hours (n=3 per time point per lithium salt) and blood was collected by cardiac puncture and carefully perfused with a pressure controlled pump to maintain microvasculature integrity before removing brain tissue. Blood was centrifuged at 1600×g at room temperature for 10 minutes and plasma was separated. A 500 mL aliquot was diluted 10 fold in a 5% TCA and 10% isopropyl alcohol (IPA) solution, vortexed and allowed to sit for 10 minutes in order to precipitate proteins. These aliquots were centrifuged at 3000×g for 30 minutes and the supernatant was transferred to clean tubes prior to measuring lithium content using atomic absorption spectroscopy (AAS). Brains were rinsed with PBS, weighed, and an equal volume of concentrated HNO3 was added. The brains were heated in this nitric acid solution for 1 hour, allowed to cool to room temperature, then centrifuged at 3000×g for 1 hour. The supernatant was removed and diluted 10 fold in 10% IPA prior to measuring lithium content using AAS (Shimadzu AA-6200). Peak height measurements were carried out referring to values obtained for standards of known concentrations. […] Two tailed t-tests were used to assess the statistical significance at each time point for the pharmacokinetic curves. The criterion for rejection of the null hypothesis was P<0.05.

[2] = rat, same protocol; previously reported [7]; peaks rapidly; cited from earlier work

SMILES	AUC(0-72) ([1]; brain lithium, 0-72 h, oral gavage 4 meq. kg^−1 elemental lithium, mean±SEM) [µg/g]	brain lithium exposure compared with other lithium salts (e.g. lithium lactate) ([1]; brain, oral)	plasma lithium exposure compared with other lithium salts (e.g. lithium lactate) ([1]; plasma, oral)	time to elimination of lithium [2] [h]
O=C([O-])c1ccccc1O.[Li+] [Lithium Salicylate, Lithium salicylate]	153.1 ± 7.66	better brain exposure	comparatively lower plasma lithium exposure	
O=C([O-])[O-].[Li+].[Li+] [lithium carbonate]				≤ 48
